Experimental data reported in US12435061B2 (priority 2020, dated 2025).
Converted amounts (≈) assume the structure as drawn. Where two headings read alike, the source gives them in different places.

What was measured:
hTRPV3 [1] = target: T1, hTRPV3 (Homo sapiens (Human), UniProt Q8NET8); assay: Whole-cell patch clamp, hTRPV3 Phase 1 / Phase 2 currents; assay type: cell-based
How it was run: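 Whole-cell recordings on induced TRPV3 cells replated on coverslips, held at −40 mV with 400 ms ramps from −120 to +100 mV every 5 s; currents read at −80 and +80 mV. Ringer's external solution; current activated by heating to ≥28 °C or 20 μM 2-APB.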

hTRPV3 [2] = target: T1, hTRPV3; assay: hTRPV3 HAMA IC50 assay (Hamamatsu FDSS6000 calcium flux, TRex-293 cells)
Description: IC50s were calculated using CBIS from ChemInnovation (San Diego).

[3] = Aqueous solubility assay in Normal Ringer Solution; details: Normal Ringer Solution; for solubility at 40 min: saline or isotonic, kinetic from dmso stock
Description: Following vortex and incubation for a sufficient time (e.g. 40 minutes at room temperature), solutions were filtered, quenched with acetonitrile, and analyzed by Liquid Chromotography. Solubility Limits were determined by comparison to a standard curve.

[4] = Metabolic Stability assay, rat liver microsomes; assay type: in vitro ADME
How it was run: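 Test article at 1 μM starting concentration incubated with human or rat liver microsomes at 37 °C, with the reaction started by NADPH regeneration components. Aliquots were quenched in cold acetonitrile/MeOH/H2O at 0, 7, 15, 30 and 60 min and analysed by HPLC/MS/MS.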

[5] = Phase 1 current, inward, whole-cell patch clamp, read-out: hTRPV3 Patch P1 Inwd
[6] = Phase 1 current, read-out: hTRPV3 (nM) (Phase 1)
[7] = Phase 2 current, inward, whole-cell patch clamp, read-out: hTRPV3 Patch P2 Inwd
[8] = Phase 2 current, read-out: hTRPV3 (nM) (Phase 2)

T1 sequence (Q8NET8 whole entry): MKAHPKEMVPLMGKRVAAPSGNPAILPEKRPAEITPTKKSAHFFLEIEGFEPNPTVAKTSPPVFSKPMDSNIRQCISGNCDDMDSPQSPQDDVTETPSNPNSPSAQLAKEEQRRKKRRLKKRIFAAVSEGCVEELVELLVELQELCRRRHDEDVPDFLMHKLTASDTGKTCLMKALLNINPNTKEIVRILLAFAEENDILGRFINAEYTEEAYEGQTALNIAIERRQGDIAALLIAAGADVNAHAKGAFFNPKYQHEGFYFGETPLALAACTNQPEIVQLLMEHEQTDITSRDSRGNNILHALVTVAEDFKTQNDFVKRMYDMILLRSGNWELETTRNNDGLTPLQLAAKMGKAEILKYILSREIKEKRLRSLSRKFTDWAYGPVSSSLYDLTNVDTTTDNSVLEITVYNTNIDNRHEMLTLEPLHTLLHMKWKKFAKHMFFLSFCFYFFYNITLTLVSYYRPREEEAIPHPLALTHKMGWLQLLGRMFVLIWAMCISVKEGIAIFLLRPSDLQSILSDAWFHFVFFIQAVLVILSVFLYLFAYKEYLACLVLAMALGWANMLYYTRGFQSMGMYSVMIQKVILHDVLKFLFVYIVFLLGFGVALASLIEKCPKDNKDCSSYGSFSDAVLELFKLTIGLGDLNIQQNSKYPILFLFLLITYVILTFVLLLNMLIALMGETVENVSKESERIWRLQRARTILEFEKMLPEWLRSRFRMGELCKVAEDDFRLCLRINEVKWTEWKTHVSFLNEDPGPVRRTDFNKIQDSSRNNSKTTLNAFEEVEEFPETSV

| SMILES | IC50 (hTRPV3 [1]; [5]) | IC50 (hTRPV3 [1]; [6]) | hTRPV3 HAMA IC50 (nM) (5 min) (hTRPV3 [2]) | solubility at 40 min [3] | half-life at 1 μM ([4]; read-out: LM T1/2 (min) (rat)) | further results |
| --- | --- | --- | --- | --- | --- | --- |
| OCc1ncc(-c2ccccc2)cc1N1CC[C@H](Oc2ccc(C(F)(F)F)cn2)C1 [Compound 1-188, (S)-(5-phenyl-3-(3-(5-(trifluoromethyl)pyridin-2-yloxy)pyrrolidin-1-yl)pyridin-2-yl)methanol] | > 1000 nM | > 3200 nM | no fit (5 min) no fit (30 min) | – | – | hTRPV3 HAMA IC50 (nM) (30 min) (hTRPV3 [2]): no fit (5 min) no fit (30 min) |
| Cc1ccccc1Oc1ccc(N2CC[C@H](Oc3ccc(C(F)(F)F)cn3)C2)c(CO)n1 [Compound 1-226, (S)-(6-(o-tolyloxy)-3-(3-(5-(trifluoromethyl)pyridin-2-yloxy)pyrrolidin-1-yl)pyridin-2-yl)methanol] | 100 to 1000 nM | ~158 nM | no fit (5 min) no fit (30 min) | – | – | hTRPV3 HAMA IC50 (nM) (30 min) (hTRPV3 [2]): no fit (5 min) no fit (30 min) |
| Cc1cccnc1O[C@H]1CCN(c2ccc(-c3ccccc3Cl)cc2CCO)C1 [Compound 1-194, (S)-2-(2′-chloro-4-(3-(3-methylpyridin-2-yloxy)pyrrolidin-1-yl)biphenyl-3-yl)ethanol] | 100 to 1000 nM | 327 nM | no fit (5 min) | – | – | – |
| FC(F)(F)c1ccc(O[C@H]2CCN(c3ccccc3-c3ccccc3)C2)nc1 [Compound 1-27, (S)-2-(1-(biphenyl-2-yl)pyrrolidin-3-yloxy)-5-(trifluoromethyl)pyridine] | > 1000 nM | > 3200 nM | no fit (5 min) | – | – | – |
| Cc1ccccc1-c1ccc(CO)c(N2CC[C@H](Oc3ccc(C(F)(F)F)cn3)C2)c1 [Compound 1-239, (S)-(2′-methyl-3-(3-(5-(trifluoromethyl)pyridin-2-yloxy)pyrrolidin-1-yl)biphenyl-4-yl)methanol] | 100 to 1000 nM | 607 nM | no fit (5 min) no fit (30 min) | – | – | hTRPV3 HAMA IC50 (nM) (30 min) (hTRPV3 [2]): no fit (5 min) no fit (30 min) |
| CCc1ccccc1Oc1ccc(CO)c(N2CC[C@H](Oc3ccc(C(F)(F)F)cn3)C2)c1 [Compound 1-228, (S)-(4-(2-ethylphenoxy)-2-(3-(5-(trifluoromethyl)pyridin-2-yloxy)pyrrolidin-1-yl)phenyl)methanol] | 10 to 100 nM | 62.1 nM | no fit (5 min) no fit (30 min) | – | – | hTRPV3 HAMA IC50 (nM) (30 min) (hTRPV3 [2]): no fit (5 min) no fit (30 min) |
| COc1ccccc1-c1ccc(N2CC[C@H](Oc3ncccc3C)C2)c(CO)n1 [Compound 1-186, (S)-(6-(2-methoxyphenyl)-3-(3-(3-methylpyridin-2-yloxy)pyrrolidin-1-yl)pyridin-2-yl)methanol] | > 1000 nM | 1010 nM | no fit (5 min) no fit (30 min) | – | – | IC50 (hTRPV3 [1]; [7]): 100 to 1000 nM; IC50 (hTRPV3 [1]; [8]): 980 nM; hTRPV3 HAMA IC50 (nM) (30 min) (hTRPV3 [2]): no fit (5 min) no fit (30 min) |
| NC(=O)c1c(-c2ccccc2)cccc1N1CC[C@H](Oc2ccc(C(F)(F)F)cn2)C1 [Compound 1-72, (S)-3-(3-(5-(trifluoromethyl)pyridin-2-yloxy)pyrrolidin-1-yl)biphenyl-2-carboxamide] | – | – | no fit (5 min) | – | – | hTRPV3 (nM) (Phase 1) (hTRPV3 [1]; Phase 1 current): Agonist; IC50 (hTRPV3 [1]; [7]): > 1000 nM; IC50 (hTRPV3 [1]; [8]): > 3200 nM |
| CCc1ccccc1-c1ccc(N2CC[C@H](Oc3ncccc3C)C2)c(CO)n1 [Compound 1-187, (S)-(6-(2-ethylphenyl)-3-(3-(3-methylpyridin-2-yloxy)pyrrolidin-1-yl)pyridin-2-yl)methanol] | 100 to 1000 nM | 720 nM | no fit (5 min) no fit (30 min) | – | – | IC50 (hTRPV3 [1]; [7]): > 1000 nM; IC50 (hTRPV3 [1]; [8]): ~1000 nM; hTRPV3 HAMA IC50 (nM) (30 min) (hTRPV3 [2]): no fit (5 min) no fit (30 min) |
| O=[N+]([O-])c1cc(-c2ccccc2)ccc1N1CC[C@H](Oc2ccc3cc(Cl)ccc3n2)C1 [Compound 1-70, (S)-6-chloro-2-(1-(3-nitrobiphenyl-4-yl)pyrrolidin-3-yloxy)quinoline] | > 1000 nM | > 3200 nM | no fit (5 min) | – | – | IC50 (hTRPV3 [1]; [7]): > 1000 nM; IC50 (hTRPV3 [1]; [8]): > 3200 nM |
| NC(=O)c1cc(C(=O)c2ccccc2)ccc1N1CC[C@H](Oc2ncccc2Cl)C1 [Compound 1-136, (S)-5-benzoyl-2-(3-(3-chloropyridin-2-yloxy)pyrrolidin-1-yl)benzamide] | – | – | – | > 15 µM | 19.7 min | IC50 (hTRPV3 [1]; hTRPV3 Patch P1 Inwd (nM)): > 1000 nM; IC50 (hTRPV3 [1]; hTRPV3 Patch P2 Inwd (nM)): > 1000 nM; IC50 (hTRPV3 [1]; read-out: hTRPV3 (nM) (Phase 1)): 1620 nM; IC50 (hTRPV3 [1]; read-out: hTRPV3 (nM) (Phase 2)): 1670 nM |
| CCc1ccccc1Oc1ccc(N2CC[C@H](Nc3ncccc3Cl)C2)c(CO)c1 [Compound 1-380, (S)-(2-(3-(3-chloropyridin-2-ylamino)pyrrolidin-1-yl)-5-(2-ethylphenoxy)phenyl)methanol] | 10 to 100 nM | 25.6 nM | – | – | 20.9 min | Solubility Ringer (nM) ([3]; room temperature): BLQ |
| COc1cnc(C(=O)N2CCC(c3ccc(-c4ccccc4C4CC4)cc3CO)C2)cn1 (stereo not shown) [Compound 2-107] | 10 to 100 nM | – | – | 9.25 µM (≈ 3.97 µg/mL) | – | half-life at 1 μM ([4]; read-out: LM T1/2 (min) rat): 25.7 min; IC50 (hTRPV3 [1]; Phase 1 current, human TRPV3, read-out: hTRPV3 (nM) Phase 1): 31.5 nM |
| O=C(c1ccc(F)cc1)c1ccc(N2CC[C@H](Oc3ncccc3Cl)C2)c(CO)c1 [Compound 1-279, (S)-(4-(3-(3-chloropyridin-2-yloxy)pyrrolidin-1-yl)-3-(hydroxymethyl)phenyl)(4-fluorophenyl)methanone] | 10 to 100 nM | 56.9 nM | – | 1.2 µM (≈ 0.512 µg/mL) | 18.4 min | – |
| COCc1ccccc1Oc1ccc(N2CC[C@H](Oc3ncccc3Cl)C2)c(CCO)c1 [Compound 1-297, (S)-2-(2-(3-(3-chloropyridin-2-yloxy)pyrrolidin-1-yl)-5-(2-(methoxymethyl)phenoxy)phenyl)ethanol] | 10 to 100 nM | 56.6 nM | – | 1.4 µM (≈ 0.637 µg/mL) | 7.44 min | – |
| CC(=O)c1ccccc1-c1ccc(N2CC[C@H](Oc3ccc(C(F)(F)F)cn3)C2)c(CO)c1 [Compound 1-157, (S)-1-(3′-(hydroxymethyl)-4′-(3-(5-(trifluoromethyl)pyridin-2-yloxy)pyrrolidin-1-yl)biphenyl-2-yl)ethanone] | 100 to 1000 nM | 211 nM | – | ~1.8 µM (≈ 0.822 µg/mL) | 17.5 min | – |
| CC(C)c1ccccc1Oc1ccc(N2CC[C@H](Oc3ccccn3)C2)c(CO)c1 [Compound 1-316] | < 10 nM | 7.77 nM | – | > 4 µM | 18.9 min | – |
| CCc1ccccc1C(=O)c1ccc(N2CC[C@H](Oc3ncccc3Cl)C2)c(CO)c1 [Compound 1-256, (S)-(4-(3-(3-chloropyridin-2-yloxy)pyrrolidin-1-yl)-3-(hydroxymethyl)phenyl)(2-ethylphenyl)methanone] | 10 to 100 nM | 50.9 nM | – | ~0.45 µM (≈ 0.197 µg/mL) | 6.05 min | – |
| OCCOc1cc(-c2ccccc2)ccc1N1CC[C@@H](Oc2ccc(C(F)(F)F)cn2)C1 [Compound 1-117, (R)-2-(4-(3-(5-(trifluoromethyl)pyridin-2-yloxy)pyrrolidin-1-yl)biphenyl-3-yloxy)ethanol] | > 1000 nM | 1920 nM | – | ~2 µM (≈ 0.889 µg/mL) | 79.8 min | IC50 (hTRPV3 [1]; [7]): 100 to 1000 nM; IC50 (hTRPV3 [1]; [8]): 486 nM |
| Cc1cccc(C(=O)c2ccc(N3CC[C@H](Oc4ncccc4Cl)C3)c(CO)c2)c1 [Compound 1-282, (S)-(4-(3-(3-chloropyridin-2-yloxy)pyrrolidin-1-yl)-3-(hydroxymethyl)phenyl)(m-tolyl)methanone] | 10 to 100 nM | 62.3 nM | – | ~0.67 µM (≈ 0.283 µg/mL) | 16.1 min | – |
| COC(c1ccc(F)cc1)c1ccc(N2CC[C@H](Oc3ncccc3Cl)C2)c(CO)c1 (stereo partly drawn) [Compound 1-289, (2-((S)-3-(3-chloropyridin-2-yloxy)pyrrolidin-1-yl)-5-((4-fluorophenyl)(methoxy)methyl)phenyl)methanol] | 10 to 100 nM | 66.2 nM | – | ~1.75 µM (≈ 0.775 µg/mL) | 9.22 min | – |
